Data on 25 molecules can be found in patent US11034692B1 (Genentech, Inc., priority 2017, dated 2021).

Where two headings read alike, the source gives them in different places.

Test [1] addresses HPK1-FL (HPK full length, T165E S171E) (Homo sapiens (Human), UniProt Q92918, S171E/T165E). As to the kind of experiment: HPK1-FL HTRF Enzymatic Assay ("HTRF"). Conditions: ATP 1 mM, Table B1-2, read-out: HPK1 Ki, H = HTRF. It counts as biochemical. As for the experimental part: HPK1-FL HTRF Enzymatic Assay (“HTRF”)
HPK-FL enzyme phosphorylates Biotin-SLP-76 substrate in the presence of ATP at 1 mM and varying concentrations of test compound. Product is detected by FRET using Eu-anti-pSLP76 Ab and SA-XL665. See www.cisbio.com/HTRF for additional HTRF technology information.
Instrumentation: • Echo555 compound dispenser • Agilent Bravo • Perkin Elmer Envision
Materials: • Assay plate: White ProxiPlate 384 F (PerkinElmer cat #6008289) • Kinase: HPK full length double mutant • Substrate: Biotin-SLP76 • ATP: 100 mM ATP • BSG: 2% BSG • DMSO: DMSO (Sigma cat #34869-100ML) • Reaction Buffer: H2O/50 mM HEPES, pH 7.5/10 mM MgCl2/2 mM TCEP/0.01% Brij-35/0.01% BSG • Detection mix: Eu-anti-pSLP76/SA-XL665 (Cisbio, #610SAXAC)
Assay Procedure Ki Determination:
To a 384 well Proxiplate with 80 nL compound or DMSO spotted on was added 4 μl/well kinase mix. The mixture was preincubated for 30 minutes and then 4 μl/well substrate mix was added. The solution was incubated for 60 min and then 4 μl/well detection mix was added. The solution was incubated for another 60 min. The plates were then loaded onto a Perkin Elmer Envision and the TR-FRET signal was measured at 615 and 665 nm. A ratio of […] was used to calculate the % activity at each concentration of compound.
A general note: In TR-FRET formats the signal depends on donor and acceptor labels being close together.

For test [2], the target named is HPK1. The test can be described thus: HPK1 Lantha Binding Assay ("Lanth"). The gist of the method: (§1)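 Compounds in an 11-point 5-fold series were preincubated 1 h at 23 C with 2 nM kinase plus 2 nM Eu-anti-GST antibody. Then 15 nM Tracer222 was added for another hour, and time-resolved FRET was read at 665/615 nm. Ki values come from a Morrison tight-binding model that uses the tracer Kd.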

The test system of test [3] is primary human pan T cells. The test can be described thus: Human T-Cell IL2 Induction Assay. It counts as cell-based. To be noted: anti-CD3/anti-CD28 stimulated primary human pan T cells. As for the experimental part: Human T-Cell IL2 Induction Assay
Anti-CD3 and anti-CD28 activates TCR signaling in primary human pan T cells leading to IL-2 promoter induction. Secreted IL-2 in cell culture supernatant is detected by electrochemiluminescence using a capture antibody against IL-2 and an anti-IL-2 antibody labeled with SULFO-tag.
See www.mesoscale.com for additional electrochemiluminescence technology information.
Incubate primary human pan T cells with varying concentrations of test compounds for 30 minutes in a humidified incubator at 37° C. and 5% CO2. Transfer cells to a plate pre-coated with a fixed concentration of anti-human CD3 (determined separately for each donor lot) and add soluble anti-human CD28 (final concentration=1 μg/ml). Stimulate cells in a humidified incubator at 37° C. and 5% CO2 for 4 hours. Transfer 25 μl of supernatant to a MSD single spot plate pre-coated with an anti-human IL-2 antibody. Incubate MSD plate overnight at 4° C. with gentle shaking. Wash MSD plate 4× with wash buffer. Add SULFO-tagged detection antibody at a 1:50 dilution and incubate at room temperature shaking for 2 hours. Wash MSD plate 4× with wash buffer and add 150 μl 2×MSD read buffer. Read on an MSD instrument. Normalize data to stimulated/untreated controls to calculate % activity at each concentration of compound.
Materials: • Frozen Primary Human Pan-T Cells (StemCell Technologies #70024) • anti-human CD3 (OKT3 clone) (eBioscience #16-0037-81) • anti-human CD28 (CD28.2 clone) (BD #555725) • 96-well Human IL-2 tissue culture kit (MSD #K151AHB-4)
Instrumentation: • Biomek FX for liquid handling (Beckman Coulter) • MSD SECTOR S 600 (Meso Scale Discovery)
Exemplary compounds of Formula I or Ia were tested in the human T-cell IL-2 induction assays. The % increase measured for IL-2 in cells treated by the test compounds relative to untreated cells are provided in Table B2 for certain compounds (structures as shown with the HPK1 Ki values).

Test [4] addresses HPK1 (Homo sapiens, UniProt Q92918). The test can be described thus: HPK1 Lantha Binding Assay ("Lanth"). A digest of the protocol: as §1
The mark [5] stands for this setting: Table B1-1, read-out: HPK1 Ki (μM) (Lanth).
The mark [6] stands for this setting: Table B2, read-out: HPK1 Ki (nM), L = Lanth.
[7] abbreviates: Table B1-2, read-out: HPK1 Ki, L = Lanth.

HPK1-FL (HPK full length, T165E S171E), sequence (Q92918 whole entry T165E/S171E): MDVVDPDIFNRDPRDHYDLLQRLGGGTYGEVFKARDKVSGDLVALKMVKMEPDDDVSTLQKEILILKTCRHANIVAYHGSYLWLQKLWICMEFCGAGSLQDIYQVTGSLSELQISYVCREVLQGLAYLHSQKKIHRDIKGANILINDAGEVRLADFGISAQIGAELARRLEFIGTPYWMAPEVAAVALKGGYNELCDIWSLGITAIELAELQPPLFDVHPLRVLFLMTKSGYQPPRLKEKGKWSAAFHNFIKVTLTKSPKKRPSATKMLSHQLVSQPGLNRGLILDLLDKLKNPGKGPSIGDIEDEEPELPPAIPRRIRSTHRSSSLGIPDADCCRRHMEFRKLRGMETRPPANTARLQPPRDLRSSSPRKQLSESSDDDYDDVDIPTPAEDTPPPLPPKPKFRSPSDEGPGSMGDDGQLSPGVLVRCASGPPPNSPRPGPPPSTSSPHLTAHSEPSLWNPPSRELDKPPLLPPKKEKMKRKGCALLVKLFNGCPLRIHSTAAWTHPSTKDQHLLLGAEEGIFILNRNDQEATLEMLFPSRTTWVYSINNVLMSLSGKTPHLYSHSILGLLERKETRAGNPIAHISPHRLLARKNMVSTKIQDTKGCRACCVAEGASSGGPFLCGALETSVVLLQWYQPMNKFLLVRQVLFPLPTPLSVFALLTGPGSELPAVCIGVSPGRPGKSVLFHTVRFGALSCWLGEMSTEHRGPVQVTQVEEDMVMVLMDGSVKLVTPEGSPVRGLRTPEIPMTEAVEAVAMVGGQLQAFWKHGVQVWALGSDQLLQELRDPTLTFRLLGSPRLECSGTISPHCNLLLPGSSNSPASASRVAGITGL
HPK1 (Homo sapiens, UniProt Q92918), sequence (Q92918 whole entry, looked up): as the sequence (Q92918 whole entry T165E/S171E) above, with E165T, E171S counted along it

As to `CC(Oc1ccccn1)c1cc2cc(Nc3cc4n(n3)CC(=O)N(C(C)C)CC4)ncc2c(N)n1` (racemic) [Compound 419, (+/−)-2-((8-amino-6-(1-(pyridin-2-yloxy)ethyl)-2,7-naphthyridin-3-yl)amino)-6-isopropyl-5,6-dihydro-4H-pyrazolo[1,5-d][1,4]diazepin-7(8H)-one], the Ki in test [1] turned out to be 511 nM.

Consider `CC(C)N1CCc2cc(Nc3cc4cc(C(C)n5ccccc5=O)nc(N)c4cn3)nn2CC1=O` (racemic) [Compound 420, (+/−)-2-((8-amino-6-(1-(2-oxopyridin-1(2H)-yl)ethyl)-2,7-naphthyridin-3-yl)amino)-6-isopropyl-5,6-dihydro-4H-pyrazolo[1,5-d][1,4]diazepin-7(8H)-one], for which the Ki in test [1] is 1640 nM.

Regarding `Cc1ccncc1-c1cc2cc(NC(=O)[C@H]3[C@@H](C)[C@@H]3c3cnn(C)c3)ncc2c(N)n1` (single isomer, unassigned) [Compound 328], the Ki was 0.000114 µM at HPK1 [2] (setting [5]) and 0.00011 µM at HPK1 [2] (setting [6]). Also, the “% IL-2 increase relative to untreated cells” value in test [3] (assayed concentration 0.93 μM) worked out at 936%.

For the molecule `Cc1cc(-c2ncco2)cc(F)c1-c1cc2cc(NC(=O)[C@H]3[C@H](C)[C@@H]3c3cnn(C)c3)ncc2c(N)n1` (single isomer, unassigned) [Compound 349, N-(8-amino-6-(2-fluoro-6-methyl-4-(oxazol-2-yl)phenyl)-2,7-naphthyridin-3-yl)-2-methyl-3-(1-methyl-1H-pyrazol-4-yl)cyclopropane-1-carboxamide], the inhibition constant Ki in test [1] amounted to 6.2 nM.

Regarding `Cc1cc(-c2ncco2)cc(F)c1-c1cc2cc(NC(=O)[C@H]3[C@@H](C)[C@@H]3c3cnn(C)c3)ncc2c(N)n1` (single isomer, unassigned) [Compound 350], the Ki in test [1] is 39.7 nM.

For `Cc1cc(C(N)=O)cc(F)c1-c1cc2cc(NC(=O)[C@H]3C[C@@H]3c3cnn(C)c3)ncc2c(N)n1` (single isomer, unassigned) [Compound 351], the Ki in test [1] was 0.33 nM.

Take `Cc1cc(C(N)=O)cc(F)c1-c1cc2cc(NC(=O)[C@@H]3C[C@H]3c3cnn(C)c3)ncc2c(N)n1` (single isomer, unassigned) [Compound 352]: the Ki in test [1] came to 5 nM.

`Cc1cccc(F)c1-c1cc2cc(NC(=O)[C@@H]3[C@H](C)[C@H]3c3cnn(C)c3)ncc2c(N)n1` (single isomer, unassigned) [Compound 356]: the inhibitory constant (Ki) at HPK1 [2] (setting [7]) and at HPK1 [2] (setting [6]) was 0.0003 µM in each case. Further, in test [3] (assayed concentration 2.8 μM), the “% IL-2 increase relative to untreated cells” value is 732%.

For the molecule `Cc1cc(-c2ncco2)ccc1-c1cc2cc(NC(=O)[C@H]3C[C@@H]3c3cnn(C)c3)ncc2c(N)n1` (single isomer, unassigned) [Compound 379], in test [3] (assayed concentration 2.8 μM), the “% IL-2 increase relative to untreated cells” value stood at 547%.

As to `Cc1cccc(CC#N)c1-c1cc2cc(NC(=O)[C@@H]3C[C@H]3c3cnn(C)c3)ncc2c(N)n1` (single isomer, unassigned) [Compound 381], the Ki on HPK1 [4] (setting [7]) stood at 0.0081 µM.

With `Cc1ccnc(Cc2ccccc2)c1-c1cc2cc(NC(=O)[C@@H]3C[C@H]3c3cnn(C)c3)ncc2c(N)n1` (single isomer, unassigned) [Compound 397], the Ki on HPK1 [4] (setting [7]) is 0.00025 µM.

As for `Cc1cc(-n2cccn2)ncc1-c1cc2cc(NC(=O)[C@H]3C[C@@H]3c3cnn(C)c3)ncc2c(N)n1` (single isomer, unassigned) [Compound 398], the Ki on HPK1 [4] (setting [7]) is 0.03 µM.

On to `Cc1cc(N2CCC2=O)ncc1-c1cc2cc(NC(=O)[C@H]3C[C@@H]3c3cnn(C)c3)ncc2c(N)n1` (single isomer, unassigned) [Compound 400], for which the Ki at HPK1 [4] (setting [7]) was determined as 0.0012 µM.

`COC(=O)c1cc(C)c(-c2cc3cc(NC(=O)[C@H]4C[C@@H]4c4cnn(C)c4)ncc3c(N)n2)cn1` (single isomer, unassigned) [Compound 402]: the Ki at HPK1 [4] (setting [7]) is 0.00026 µM.

On to `Cc1cc(-c2ccn(C)n2)ncc1-c1cc2cc(NC(=O)[C@H]3C[C@@H]3c3cnn(C)c3)ncc2c(N)n1` (single isomer, unassigned) [Compound 404], for which the Ki on HPK1 [4] (setting [7]) was determined as 0.0019 µM.

In the case of `Cc1ccncc1-c1cc2cc(NC(=O)C3CC3)ncc2c(N)n1` [Compound 24, N-(8-amino-6-(4-methylpyridin-3-yl)-2,7-naphthyridin-3-yl)cyclopropanecarboxamide], the Ki on HPK1 [2] (setting [5]) and at HPK1 [2] (setting [6]) was 0.00068 µM throughout. Besides, the “% IL-2 increase relative to untreated cells” value in test [3] (assayed concentration 0.93 μM) came to 513%.

With `Nc1nc(-c2ccc[nH]c2=O)cc2cc(NC(=O)C3CC3)ncc12` [Compound 42, N-(8-amino-6-(2-oxo-1,2-dihydropyridin-3-yl)-2,7-naphthyridin-3-yl) cyclopropanecarboxamide], the Ki at HPK1 [4] (setting [5]) was found to be 5.8 µM; on HPK1 [2] (setting [5]) it was 0.0405 µM.

Turning to `Cc1ccncc1-c1cc2cc(NC(=O)NC(C)CO)ncc2c(N)n1` (stereo not drawn) [Compound 117, l-(8-amino-6-(4-methylpyridin-3-yl)-2,7-naphthyridin-3-yl)-3-(1-hydroxypropan-2-yl)urea], the Ki at HPK1 [4] (setting [5]) worked out at 0.00847 µM.

For the molecule `Cc1ccncc1-c1cc2cc(NC(=O)C3CC34CN(c3ncccc3C#N)C4)ncc2c(N)n1` (centres unmarked) [Compound 150, N-(8-amino-6-(4-methylpyridin-3-yl)-2,7-naphthyridin-3-yl)-5-(3-cyanopyridin-2-yl)-5-azaspiro[2.3]hexane-1-carboxamide], at HPK1 [4] (setting [5]), the Ki turned out to be 0.00077 µM.

On to `CNC(=O)Cn1cc(Nc2cc3cc(-c4cnccc4C)nc(N)c3cn2)cn1` [Compound 184, 2-[4-[[8-amino-6-(4-methyl-3-pyridyl)-2,7-naphthyridin-3-yl]amino]pyrazol-1-yl]-N-methyl-acetamide], for which the Ki on HPK1 [4] (setting [5]) stood at 0.0025 µM.

With `Cc1ccncc1-c1cc2cc(NC(=O)[C@H]3[C@@H]4CCC(C#N)[C@@H]43)ncc2c(N)n1` (stereo partly drawn) [Compound 230, (1R,5R,6S)—N-(8-amino-6-(4-methylpyridin-3-yl)-2,7-naphthyridin-3-yl)-2-cyanobicyclo[3.1.0]hexane-6-carboxamide], the Ki at HPK1 [4] (setting [5]) came to 0.000295 µM.

Turning to `Cc1ccncc1-c1cc2cc(Nc3cc(C)n(CCO)n3)ncc2c(N)n1` [Compound 262, 2-(3-[[8-amino-6-(4-methylpyridin-3-yl)-2,7-naphthyridin-3-yl]amino]-5-methyl-1H-pyrazol-1-yl)ethan-1-ol], the Ki on HPK1 [4] (setting [5]) turned out to be 0.000439 µM.

Regarding `Cc1ccncc1-c1cc2cc(NC(=O)C3CC34CC4)ncc2c(N)n1` (centres unmarked) [Compound 413, N-(8-amino-6-(4-methylpyridin-3-yl)-2,7-naphthyridin-3-yl)spiro[2.2]pentane-1-carboxamide], the Ki on HPK1 [4] (setting [7]) turned out to be 0.015 µM.

Consider `Cc1c(N)cncc1-c1cc2cc(Nc3cc4n(n3)CC(=O)N(C)CC43CC3)ncc2c(N)n1` [Compound 414, 2′-((8-amino-6-(5-amino-4-methylpyridin-3-yl)-2,7-naphthyridin-3-yl)amino)-6′-methyl-5′,6′-dihydrospiro[cyclopropane-1,4′-pyrazolo[1,5-d][1,4]diazepin]-7′(8′H)-one], for which, in test [1], the Ki was 0.013 nM.

As to `Cc1c(N)cncc1-c1cc2cc(Nc3cc4n(n3)CC(=O)N(C)CC4)ncc2c(N)n1` [Compound 415, 2-((8-amino-6-(5-amino-4-methylpyridin-3-yl)-2,7-naphthyridin-3-yl)amino)-6-methyl-5,6-dihydro-4H-pyrazolo[1,5-d][1,4]diazepin-7(8H)-one], the Ki in test [1] worked out at 0.21 nM.

The Ki is the dissociation constant of the complex between target and ligand, obtained from inhibition or displacement.
